# Columns and labels:
# [1] = tested on: U-251; assay: Growth inhibition of human U251 cells assessed as cell growth at 5X10'-5 M after 48 hrs by sulforhodamine B assay; assay type: functional; conditions: U-251, 48 h, read-out: Activity
# [2] = tested on: NCI-H226; assay: Growth inhibition of human NCI-H226 cells assessed as cell growth at 5X10'-5 M after 48 hrs by sulforhodamine B assay; assay type: functional; conditions: NCI-H226, 48 h, read-out: Activity
# [3] = tested on: HOP-92; assay: Growth inhibition of human HOP92 cells assessed as cell growth at 5X10'-5 M after 48 hrs by sulforhodamine B assay; assay type: functional; conditions: HOP-92, 48 h, read-out: Activity
# [4] = tested on: A549; assay: Growth inhibition of human A549/ATCC cells assessed as cell growth at 5X10'-5 M after 48 hrs by sulforhodamine B assay; assay type: functional; conditions: A549, 48 h, read-out: Activity
# [5] = tested on: MDA-MB-468; assay: Growth inhibition of human MDA-MB-468 cells assessed as cell growth at 5X10'-6 M after 48 hrs by sulforhodamine B assay; assay type: functional; conditions: MDA-MB-468, 48 h, read-out: Activity
# [6] = tested on: MDA-MB-231; assay: Growth inhibition of human MDA-MB-231 cells assessed as cell growth at 5X10'-6 M after 48 hrs by sulforhodamine B assay; assay type: functional; conditions: MDA-MB-231, 48 h, read-out: Activity
# [7] = tested on: ACHN; assay: Growth inhibition of human ACHN cells assessed as cell growth at 5X10'-6 M after 48 hrs by sulforhodamine B assay; assay type: functional; conditions: read-out: Activity
# [8] = tested on: OVCAR-5; assay: Growth inhibition of human OVCAR5 cells assessed as cell growth at 5X10'-6 M after 48 hrs by sulforhodamine B assay; assay type: functional; conditions: OVCAR-5, 48 h, read-out: Activity
# [9] = tested on: SK-MEL-28; assay: Growth inhibition of human SK-MEL-28 cells assessed as cell growth at 5X10'-6 M after 48 hrs by sulforhodamine B assay; assay type: functional; conditions: SK-MEL-28, 48 h, read-out: Activity
# [10] = tested on: SK-MEL-2; assay: Growth inhibition of human SK-MEL-2 cells assessed as cell growth at 5X10'-6 M after 48 hrs by sulforhodamine B assay; assay type: functional; conditions: SK-MEL-2, 48 h, read-out: Activity
# [11] = tested on: NCI-H522; assay: Growth inhibition of human NCI-H522 cells assessed as cell growth at 5X10'-9 M after 48 hrs by sulforhodamine B assay; assay type: functional; conditions: NCI-H522, 48 h, read-out: Activity
# [12] = tested on: MDA-MB-468; assay: Growth inhibition of human MDA-MB-468 cells assessed as cell growth at 10 uM after 48 hrs by sulforhodamine B assay; assay type: functional; conditions: MDA-MB-468, 48 h, read-out: Activity
# [13] = tested on: TK-10; assay: Growth inhibition of human TK10 cells assessed as cell growth at 10 uM after 48 hrs by sulforhodamine B assay; assay type: functional; conditions: TK-10, 48 h, read-out: Activity
# [14] = tested on: CAKI-1; assay: Growth inhibition of human CAKI-1 cells assessed as cell growth at 10 uM after 48 hrs by sulforhodamine B assay; assay type: functional; conditions: CAKI-1, 48 h, read-out: Activity
# [15] = tested on: SW-620; assay: Growth inhibition of human SW620 cells after 48 hrs by sulforhodamine B assay; assay type: functional; conditions: SW-620, 48 h; for CC50: read-out: LC50 (the source's name)
# [16] = tested on: NCI-H522; assay: Growth inhibition of human NCI-H522 cells after 48 hrs by sulforhodamine B assay; assay type: functional; conditions: NCI-H522, 48 h
# [17] = tested on: OVCAR-8; assay: Growth inhibition of human OVCAR8 cells assessed as cell growth at 10 uM after 48 hrs by sulforhodamine B assay; assay type: functional; conditions: OVCAR-8, 48 h, read-out: Activity
# [18] = Growth inhibition of human HCC2998 cells assessed as cell growth at 10 uM after 48 hrs by sulforhodamine B assay; assay type: functional; conditions: HCC 2998, 48 h, read-out: Activity
# [19] = tested on: NCI-H522; assay: Growth inhibition of human NCI-H522 cells assessed as cell growth at 10 uM after 48 hrs by sulforhodamine B assay; assay type: functional; conditions: NCI-H522, 48 h, read-out: Activity
# [20] = tested on: NCI-H460; assay: Growth inhibition of human NCI-H460 cells assessed as cell growth at 10 uM after 48 hrs by sulforhodamine B assay; assay type: functional; conditions: NCI-H460, 48 h, read-out: Activity
# [21] = tested on: COLO 205; assay: Growth inhibition of human COLO205 cells assessed as cell growth at 5X10'-6 M after 48 hrs by sulforhodamine B assay; assay type: functional; conditions: COLO 205, 48 h, read-out: Activity
# [22] = tested on: UO-31; assay: Growth inhibition of human UO31 cells after 48 hrs by sulforhodamine B assay; assay type: functional; conditions: UO-31, 48 h; for CC50: read-out: LC50 (the source's name)
# [23] = tested on: CAKI-1; assay: Growth inhibition of human CAKI-1 cells after 48 hrs by sulforhodamine B assay; assay type: functional; conditions: CAKI-1, 48 h; for CC50: read-out: LC50 (the source's name)
# [24] = tested on: A498; assay: Growth inhibition of human A498 cells assessed as cell growth at 5X10'-7 M after 48 hrs by sulforhodamine B assay; assay type: functional; conditions: A498, 48 h, read-out: Activity
# [25] = Growth inhibition of human NCI-ADR-RES cells assessed as cell growth at 5X10'-7 M after 48 hrs by sulforhodamine B assay; assay type: functional; conditions: read-out: Activity
# [26] = tested on: UACC-62; assay: Growth inhibition of human UACC62 cells assessed as cell growth at 5X10'-7 M after 48 hrs by sulforhodamine B assay; assay type: functional; conditions: UACC-62, 48 h, read-out: Activity
# [27] = tested on: 786-0; assay: Growth inhibition of human 786-0 cells after 48 hrs by sulforhodamine B assay; assay type: functional; conditions: 786-0, 48 h; for CC50: read-out: LC50 (the source's name)
# [28] = tested on: OVCAR-3; assay: Growth inhibition of human OVCAR3 cells after 48 hrs by sulforhodamine B assay; assay type: functional, cell-based; conditions: OVCAR-3, 48 h; for CC50: read-out: LC50 (the source's name)
# [29] = tested on: K562; assay: Growth inhibition of human K562 cells assessed as cell growth at 5X10'-7 M after 48 hrs by sulforhodamine B assay; assay type: functional; conditions: K562, 48 h, read-out: Activity
# [30] = tested on: MDA-MB-231; assay: Growth inhibition of human MDA-MB-231 cells assessed as cell growth at 5X10'-8 M after 48 hrs by sulforhodamine B assay; assay type: functional; conditions: MDA-MB-231, 48 h, read-out: Activity
# [31] = tested on: LOX IMVI; assay: Growth inhibition of human LOXIMVI cells assessed as cell growth at 5X10'-8 M after 48 hrs by sulforhodamine B assay; assay type: functional; conditions: read-out: Activity
# [32] = tested on: UACC-62; assay: Growth inhibition of human UACC62 cells assessed as cell growth at 5X10'-5 M after 48 hrs by sulforhodamine B assay; assay type: functional; conditions: UACC-62, 48 h, read-out: Activity
# [33] = tested on: MOLT-4; assay: Growth inhibition of human MOLT4 cells assessed as cell growth at 5X10'-8 M after 48 hrs by sulforhodamine B assay; assay type: functional; conditions: MOLT-4, 48 h, read-out: Activity
# [34] = tested on: SN12C; assay: Growth inhibition of human SN12C cells assessed as cell growth at 5X10'-9 M after 48 hrs by sulforhodamine B assay; assay type: functional; conditions: read-out: Activity
# [35] = tested on: IGROV-1; assay: Growth inhibition of human IGROV1 cells assessed as cell growth at 5X10'-9 M after 48 hrs by sulforhodamine B assay; assay type: functional; conditions: IGROV-1, 48 h, read-out: Activity
smiles,measurement,setting,value
COc1cc(-c2nn(-c3cccc(NC(=O)Nc4ccc(Cl)c(Cl)c4)c3)cc2-c2ccncc2)ccc1Cl,growth at 50 µM,[1],-49%
same,growth at 50 µM,[2],4%
same,growth at 50 µM,[3],-39%
same,growth at 50 µM,[4],3%
same,growth at 5 µM,[5],-29%
same,growth at 5 µM,[6],-47%
same,growth at 5 µM,[7],3%
same,growth at 5 µM,[8],27%
same,growth at 5 µM,[9],1%
same,growth at 5 µM,[10],-52%
same,growth at 0.005 µM,[11],101%
same,growth at 10 µM,[12],2.14%
same,growth at 10 µM,[13],10.9%
same,growth at 10 µM,[14],16.8%
same,GI50,[15],1.59 µM
same,TGI,[15],> 50 µM
same,CC50,[15],> 50 µM
same,GI50,[16],0.811 µM
same,LC50 (concentration killing 50% of cells),[16],> 50 µM
same,TGI,[16],3.1 µM
same,growth at 10 µM,[17],-17.2%
same,growth at 10 µM,[18],2.84%
same,growth at 10 µM,[19],-14.7%
same,growth at 10 µM,[20],2.32%
same,growth at 5 µM,[21],-89%
same,GI50,[22],0.845 µM
same,TGI,[22],4.98 µM
same,CC50,[22],> 50 µM
same,GI50,[23],1.12 µM
same,TGI,[23],3.7 µM
same,CC50,[23],> 50 µM
same,growth at 0.5 µM,[24],80%
same,growth at 0.5 µM,[25],72%
same,growth at 0.5 µM,[26],75%
same,GI50,[27],1.31 µM
same,TGI,[27],4.47 µM
same,CC50,[27],> 50 µM
same,GI50,[28],0.697 µM
same,IC50,[28],0.7 µM
same,TGI,[28],2.27 µM
same,CC50,[28],> 50 µM
same,growth at 0.5 µM,[29],65%
same,growth at 0.05 µM,[30],89%
same,growth at 0.05 µM,[31],101%
same,growth at 50 µM,[32],-63%
same,growth at 0.05 µM,[33],113%
same,growth at 0.005 µM,[34],94%
same,growth at 0.005 µM,[35],97%
COc1cc(-c2nn(-c3cccc(NC(=O)Nc4cccc(C(F)(F)F)c4)c3)cc2-c2ccncc2)ccc1Cl,growth at 50 µM,[1],-84%
same,growth at 50 µM,[2],7%
same,growth at 50 µM,[3],-45%
same,growth at 50 µM,[4],1%
same,growth at 5 µM,[5],-33%
same,growth at 5 µM,[6],-35%
same,growth at 5 µM,[7],-8%
same,growth at 5 µM,[8],5%
same,growth at 5 µM,[9],-18%
same,growth at 5 µM,[10],-67%
same,growth at 0.005 µM,[11],95%
same,growth at 10 µM,[12],-27.6%
same,growth at 10 µM,[13],2.65%
same,growth at 10 µM,[14],11.5%
same,GI50,[15],1.23 µM
same,TGI,[15],14.3 µM
same,CC50,[15],50 µM
same,GI50,[16],0.714 µM
same,LC50 (concentration killing 50% of cells),[16],> 50 µM
same,TGI,[16],2.43 µM
same,growth at 10 µM,[17],-36.2%
same,growth at 10 µM,[18],-18.4%
same,growth at 10 µM,[19],-30.8%
same,growth at 10 µM,[20],-7.91%
same,growth at 5 µM,[21],-78%
same,GI50,[22],0.702 µM
same,TGI,[22],3.21 µM
same,CC50,[22],> 50 µM
same,GI50,[23],1.03 µM
same,TGI,[23],3.51 µM
same,CC50,[23],> 50 µM
same,growth at 0.5 µM,[24],73%
same,growth at 0.5 µM,[25],65%
same,growth at 0.5 µM,[26],74%
same,GI50,[27],1.28 µM
same,TGI,[27],4.05 µM
same,CC50,[27],> 50 µM
same,GI50,[28],0.579 µM
same,IC50,[28],0.58 µM
same,TGI,[28],1.87 µM
same,CC50,[28],24.7 µM
same,growth at 0.5 µM,[29],53%
same,growth at 0.05 µM,[30],99%
same,growth at 0.05 µM,[31],95%
same,growth at 50 µM,[32],-87%
same,growth at 0.05 µM,[33],92%
same,growth at 0.005 µM,[34],97%
same,growth at 0.005 µM,[35],100%
